Laboratory results reported in article PMC6429200, “Synthesis and Broad Antiviral Activity of Novel 2-aryl-isoindolin-1-ones towards Diverse Enterovirus A71 Clinical Isolates” (Molecules, 2019).
Values joined by “and” are separate entries in the source; they are usually repeats but may differ in a detail not shown here. Equal entries are not always repeated.

Assays:
EV-A71 [1] = assay: Viral titer reduction assay; format: cell-based, Enterovirus 71 (EV-A71); settings: cells treated after EV-A71 infection
Description: To further confirm the anti-EV-A71 activity, the expression levels of VP1 RNA and protein were determined. Vero cells were infected with the H strain of EV-A71 for 1 h followed by treatment with A3 of various concentrations for another 24 h. […] Meanwhile, the antiviral efficacy of A3 was also tested using viral titer reduction assays.
Figure 2 Compound A3 inhibited EV-A71 replication in vitro. Vero cells (9 × 10^5 cells/well) were plated into 6-well culture plates and infected with EV-A71 (multiplicity of infection, MOI = 0.1) for 1 h. The infected cells were then treated with the indicated concentrations of A3 for 24 h. Intracellular viral VP1 protein (A) and RNA (B) were determined by Western blot and qRT-PCR assays, respectively. (C) The inhibition of a viral titer by A3. ** p < 0.01 * p < 0.05.

[2] = tested on: four EV-A71 strains (BrCr, H, Shenzhen98, Jiangsu52); assay: CPE inhibition assay, summary over four EV-A71 strains; format: cell-based, Enterovirus 71 (EV-A71)
Description: (§1) An in-vitro antiviral assay was established using the Africa monkey kidney cell line Vero which was infected with different EV-A71 clinical isolates (BrCr, H, Shenzhen98 and Jiangsu52). A total of 24 synthetic compounds were initially screened in such an assay to determine their inhibitory effect on virus replication at 3-fold diluted concentrations serial (400~0.18 μM). The 50% effective concentration (EC50) of each compound was calculated according to its inhibitory rate values with the Reed–Muench method. The 50% cytotoxic concentration (CC50) was defined as the concentration that inhibited 50% cellular growth in comparison with the controls. The selectivity index (SI) was calculated as CC50/EC50. […] Generally, the EV-A71 H strain was less sensitive to most of the active compounds as compared to the other virus strains.
(§2) The anti-EV-A71 activity of compounds was determined by the CPE inhibition method. Briefly, cells (3 × 10^4 cells/well) were plated into 96-well culture plates for incubation for 24 h. The medium was then removed and cells were infected with EV-A71 with 100TCID50 (50% tissue culture infective doses) in serum-free medium for 1 h at 37 °C. Then, the unbound viruses were removed and various concentrations of compounds were supplemented and incubated for another 48 h. The EC50 was determined by the Reed–Muench method. The selectivity index was calculated as the ratio of CC50/EC50 [15].

[3] = Cytotoxicity assay (CPE) on Vero cells; format: cell-based; settings: African green monkey; Vero cells, 3 days of incubation, Reed–Muench; read-out: CC50
Description: as §1
African green monkey kidney (Vero) cells were purchased from the American Type Culture Collection (ATCC) and were cultured in minimum essential medium (MEM) supplemented with 10% fetal bovine serum (FBS) (GIBCO) and antibiotics (100 U/mL penicillin and […] streptomycin) at 37 °C in a 5% CO2 incubator.
The cytotoxic effects of compounds on Vero cells were detected by the cytopathic effect (CPE) assay. Briefly, cells (3 × 10^4 cells/well) were seeded into 96-well culture plates and incubated overnight. Then, the medium was removed and different concentrations of compounds were applied in triplicate. After 3 days of incubation, the CC50 was defined as the concentration that inhibited 50% cellular growth in comparison with the untreated controls, as calculated by the Reed–Muench method.

EV-A71 strain BrCr = assay: CPE inhibition assay for anti-EV-A71 in Vero cells, BrCr strain; format: cell-based, Enterovirus 71 (EV-A71)
Description: as §1
(§3) EV-A71 strain ShenZhen98 (SZ98) was isolated from the throat swab sample of an HFMD case which occurred in 1998 in China. This was kindly provided by Dr. Qi Jin, Institute of Pathogen Biology, Chinese Academy of Medical Science and Peking Union Medical School, Beijing, China. EV-A71 strains BrCr (VR-1775) and H (VR-1432) were purchased from the ATCC. The EV-A71 strain JS52 was a kind gift from Dr. Xiangzhong Ye, Beijing Wantai Biological Pharmacy Enterprise Co., Ltd. EV-A71 were all passaged in Vero cells.
as §2

EV-A71 [4] = assay: Time-of-addition assay (VP1 Western blot) in Vero cells; format: cell-based, Enterovirus 71 (EV-A71)
Description: In order to explore the inhibitory effect of compound A3 on the EV-A71 viral life cycle, EV-A71 viral protein VP1 was measured via Western blot when Vero cells were treated with compound A3 prior to, during, or after EV-A71 viral incubation (Figure 3). […] It is likely that compound A3 inhibits the EV-A71 replication by acting on the virus entry stage.
The antiviral activity of the tested compound was examined at different time periods prior to, during or after viral infection. Briefly, Vero cells (9 × 10^5 cells/well) were inoculated with EV-A71 (MOI = 1.0) at 37 °C for 1 h. The media with or without treatment were added during the periods of −24~0 h, −1~0 h, 0~10 h, 1~10 h, 2~10 h, 4~10 h, 6~10 h and 8~10 h. After each incubation period, the collected cells were washed with PBS, and then the viral protein was determined by Western blot.
Figure 3 Time-of-addition analysis of Vero cells with compound A3 treatment prior to, during or after EV-A71 infection. (A) Schematic illustration of experiment to determine which stage of EV-A71 viral cycle was inhibited by compound A3 in Vero cells. […] For all experiments, the collected cells were washed with PBS after 10 h post viral infection, and viral VP1 expression was determined via Western blot assay.

[5] = tested on: EV-A71 strain Jiangsu52 (JS52); assay: CPE inhibition assay for anti-EV-A71 in Vero cells, Jiangsu52 strain; format: cell-based, Enterovirus 71 (EV-A71)
Description: as §1, §3, §2

[6] = Enterovirus A, EVA71, Vero cells, 100TCID50, 48 h

With `O=C1c2ccccc2CN1c1ccc(Cl)cc1` [Compound A3, 2-(4-chlorophenyl)isoindolin-1-one] the viral titers (EV-A71 [1]) was “dose-dependent reduction in viral titers”, the “SI towards four EV-A71 strains” value ([2]; CC50/EC50, range over four strains) was 168-199 and 98–199 and the IC50 ([2]; Enterovirus A, EV71 / EVA71, read-out: Anti-EV71 IC50) was 1290 to 1530 nM. For the same compound, the EC50 ([2]; Enterovirus A, EVA71, Vero, read-out: EC50 towards four EV-A71 strains) was 1230 to 1760 nM, the “EC50 fold higher than pirodavir” value ([2]; relative to reference compound pirodavir) was 2–4 fold and the CC50 at 3 days [3] was 257000 ± 35300 nM. For the same compound, the “BrCr SI” value (EV-A71 strain BrCr; CC50/EC50) was 199, the EC50 (EV-A71 strain BrCr; [6]) was 1290 ± 240 nM and the “EV-A71 VP1 expression in Vero cells” value (EV-A71 [4]; A3 4 μM at 0, 1 and 2 h after infection (MOI = 1.0), cells collected 10 h post infection, not at the other time periods) was “significantly decreased”. The “time-of-addition: effect of pretreatment” value (EV-A71 [4]; A3 added 24 or 1 h prior to infection) was “did not display any resistance to infection by EV-A71”, the “time-of-addition: efficacy, addition after infection” value (EV-A71 [4]; A3 added at 1 or 2 h after EV-A71 infection) was “significant efficacy” and the “time-of-addition: inhibitory activity, addition during inoculation” value (EV-A71 [4]; A3 added during the inoculation of the virus) was “maximum inhibitory activity”. The “Jiangsu52 SI” value ([5]; CC50/EC50) was 199 and the EC50 [5, 6] was 1290 ± 240 nM.
